Test results from article PMC10388354, “Ir(III) Compounds Containing a Terdentate Ligand Are Potent Inhibitors of Proliferation and Effective Antimetastatic Agents in Aggressive Triple-Negative Breast Cancer Cells” (Journal of Medicinal Chemistry, 2023).

Legend:
Type in all cases: cell-based, human
B-catenin = experiment: RT-qPCR of EMT-related gene transcripts; settings: MDA-MB-231, 24 h, IC50,72h
Method: (§1) MDA-MB-231 cells were seeded on a six-well plate at the density of 0.5 × 10^6 cells per well and incubated overnight. […] Cells were harvested, and total RNA was isolated using NucleoSpin RNA columns (Machery Nagel, GE). One-step qPCR combining reverse transcription followed by amplification thermal cycling was applied using a Luna Universal One-Step RT-qPCR (New England BioLabs, MA, USA). Experiments were performed on an Illumina Eco Real-Time PCR (Illumina, CA, USA). The thermal profile was as follows: reverse transcription for 10 min at 55 °C and initial denaturation for 1 min at 95 °C, followed by 43 thermal cycles of denaturation for 10 s at 95 °C and extension for 30 s at 60 °C. Primer sequences were as follows: Β-actin-F: […]; Β-actin-R: […]; Vim-F: […]; Vim-R: […]; E-Cadherin-F: […]; E-Cadherin-R: […]; N-Cadherin-F: […]; N-Cadherin-R: […]; B-Catenin-F: […]; B-Catenin-R: […]; SNAI1-F: […]; SNAI1-R: […]. Purified primers were from Generi Biotech (Czech Republic). All runs included melting curve analysis and template-free negative technical controls to confirm specific single-product amplification. Β-actin was used as an internal control. The relative expression of mRNA is represented as a fold increase (2^–ΔΔCt).[69]

SNAI1 = experiment: RT-qPCR of EMT-related gene transcripts; settings: MDA-MB-231, 24 h, IC50,72h
Method: as §1

Vimentin = experiment: RT-qPCR of EMT-related gene transcripts; settings: MDA-MB-231, 24 h, IC50,72h
Method: as §1

N-Cadherin = experiment: RT-qPCR of EMT-related gene transcripts; settings: MDA-MB-231, 24 h, IC50,72h
Method: as §1

E-Cadherin = experiment: RT-qPCR of EMT-related gene transcripts; settings: MDA-MB-231, 24 h, IC50,72h
Method: as §1

[1] = test system: spheroids generated from MDA-MB-231 cells; experiment: Morphological quantification of 3D tumor spheroids and cell-invasive potential; settings: for protrusion occurrence (length): control 32 μm
Excerpt: The cancer cell transition from proliferation to invasion is usually initiated by nutrient stress and unfavorable conditions caused by the progressive growth of the primary tumor.[63] To study the dynamics of cells to evade the primary tumor, we monitored the morphology of spheroids generated from MDA-MB-231 cells embedded in an agar matrix.[64] Multicellular tumor spheroids represent the most used 3D in vitro model[65] and offer the opportunity to study the invasive potential of cancer cells under conditions much closer to the in vivo situation than when the traditional Transwell assay is used.[64] Morphological parameters were utilized to evaluate the invasive potential of spheroids generated from MDA-MB-231 cells.[66] Spheroid perimeter is the most useful morphological parameter for quantifying overall proliferation, whereas roundness, shape integrity, and quantification of protrusion occurrence are the morphological parameters related to the invasion potential.[64],[66] At the most compact stage, cells on the surface follow the contour of the spheroid. This morphology resembles the proliferating but not invading character of the spheroid, whereas diffuse and rough borders are the signs of the invasive character of peripheral cells. Assessment of the spheroid circularity (roundness) was analyzed by the automated edge detection and measurement of the enclosed area. A circularity equal to one indicates a perfectly circular spheroid, whereas lower values indicate a loss of circularity. The solidity is an indicator of the regularity of the spheroids’ surface or its roughness and thus can be considered the indicator of the primary protrusions and the overall regularity of the spheroid.[66]
MDA-MB-231 cells were seeded in a sandwich agar matrix (0.5% bottom gel and 0.35% upper cell-containing gel). First, wells of 24-well plates were covered with 0.5% agar gel, and then MDA-MB-231 cells were resuspended in 0.35% agar matrix. The detailed protocol was as follows: Stock solution of agar gel was prepared by autoclaving 1 g of agar in 100 mL of PBS for at least a 20 min liquid cycle. Twenty-four-well plates were covered with 1 mL of 0.5% agar created by mixing 1% agar solution with cultivation media in 1:1 ratio. The dish was then layered with 1 mL of 0.35% agar composed of 0.35 mL of 1% agar and 0.65 mL of cultivation media containing 10^5 MDA-MB-231 cells. After gel solidification, the dish was covered with 2 mL of cultivation media. Mixing of agar solution and media was carried out after the agar solution cooled to approximately 40 °C to prevent damage by high temperature. Cells were cultured for an additional 7 days to establish spheroid structures, then treated with tested compounds at the equitoxic concentration corresponding to IC50,72h, and cultured for an additional 72 h. Samples were photographed on a phase contrast microscope (Olympus CKX41), and images were processed and analyzed for morphology parameters in ImageJ software.

[2] = test system: vimentin in MDA-MB-231 VIM RFP cells; experiment: Flow cytometric quantification of vimentin (VIM RFP reporter); settings: 72 h
Method: Quantification of vimentin expression after the treatment of MDA-MB-231 VIM RFP cells with tested compounds was determined with flow cytometry. MDA-MB-231 VIM RFP cells were seeded at the density of 1 × 10^4 cells/well and incubated overnight. […] After 72 h of incubation, cells were trypsinized and analyzed on a flow cytometer Cell Stream (Luminex, USA). The data were processed using Cell Stream analysis software or FCS Express 7 (DeNovo Software, CA). The fluorescence coming from the VIM RFP tag is proportional to the expression of vimentin in treated cells. Each sample analyzed by flow cytometry consisted of at least 30,000 events.

MDA-MB-231 VIM RFP cells [3] = experiment: Morphology of the vimentin intermediate filament network by confocal microscopy; settings: 24 h, IC50,72h
Method: MDA-MB-231 VIM RFP cells were seeded on 35 mm confocal Petri dishes (Mattek) at the density of 2.5 × 10^5 cells per dish and incubated overnight. […] Then, samples were washed with PBS, fixed with 3.7% formaldehyde (10 min, RT), and mounted with ProLong Diamond Antifade Mountant with DAPI. Samples were visualized with a confocal microscope Leica SP8 SMD operated under the deconvolution lightning mode.

MDA-MB-231 VIM RFP cells [4] = experiment: Wound healing assay
Method: MDA-MB-231 VIM RFP cells were seeded on 35 mm confocal Petri dishes (Mattek) at the density of 3 × 10^5 cells/dish and incubated overnight or for a further 24–48 h to reach approximately 70% confluency. Defined scratch (220 μm width) was done under continuous suction with the pipette tip. Cells were washed, and the medium was replaced with the culture medium supplemented with tested compounds, applied at the equitoxic concentration (IC50,72h). Samples were incubated for an additional 24 h before fixation with 3.7% formaldehyde (10 min, RT) and mounted with ProLong Diamond Antifade Mountant (LifeSciences, Thermo Fisher Scientific). Samples were visualized with a confocal microscope Leica SP8 SMD operated under the deconvolution lightning mode. Images were analyzed by using ImageJ software. The scratch boundaries were identified with the MRI wound healing tool ImageJ plugin or identified manually.

MCF-10A cells = experiment: Antiproliferative activity, sulforhodamine B (SRB) assay, non-malignant cells
Method: The antiproliferative activity of the investigated compounds was evaluated using the SRB assay. The cells were seeded in 96-well tissue culture plates at a density of 3 × 10^3 cells/well in 100 μL of the medium. After overnight incubation in a humidified CO2 incubator, the cells were treated with the tested compounds in a final volume of 200 μL/well. After an additional 72 h, cells were washed with PBS and fixed for 1 h at 4 °C with trichloroacetic acid. Then, the cells were stained with 0.4% SRB dye for 30 min. Stained cells were dissolved with Tris (10 mM). The cell viability was evaluated by measurement of the absorbance at 570 nm using an absorbance reader (SPARK TECAN, SCHOELLER). The reading values were converted to the percentage of control (% cell survival). Antiproliferative effects were expressed as IC50 values calculated from curves constructed by plotting cell survival (%) versus drug concentration (μM) (IC50 = concentration of the agent inhibiting cell growth by 50%). Concentrations of compounds present in the medium during the treatment were verified by FAAS or ICP-MS.

MDA-MB-231 cells = experiment: Anti-invasion activity, real-time monitoring (xCELLigence RTCA CIM plate); settings: cells treated with IC50,72h for 24 h before seeding; monitored 7 days; untreated control 21 h
Method: The anti-invasive effects of the investigated Ir complexes in real time were assessed by the xCELLigence DP instrument with the migration RTCA CIM plate 16.[48] This system is based on the principle of the Boyden chamber that allows real-time monitoring of the number of invading cells. When cells migrate from the upper to lower wells through the microporous membrane with integrated microelectrodes, they contact and adhere to the microelectrodes affecting the impedance. The output of the experiment performed with this system is the dimensionless cell index (CI); when the cells invade, the CI increases. Moreover, it is possible to analyze the time from cell seeding to the time when invasion through the membrane matrix for each sample treated with tested compounds started (tinv). This period is determined by the intersection of the curve corresponding to the particular time-dependent cell response profile (TCRP) with the straight line corresponding to the threshold value (CI = 0). […] The invasion process was monitored for 7 days to determine whether cell death occurred during the subsequent time after the invasion was observed.
Anti-invasion activity was monitored by the xCELLigence system (Roche). […] Samples were continuously monitored every 5 min for an additional 7 days. […]

[5] = β-actin reference, untreated control as calibrator
[6] = one week-old spheroids, 72 h treatment at IC50,72h

SMILES: COc1cccc2c1C(=O)c1c(O)c3c(c(O)c1C2=O)C[C@@](O)(C(=O)CO)C[C@@H]3O[C@H]1C[C@H](N)[C@H](O)[C@H](C)O1 [Dox, doxorubicin]
- upregulation of expression of β-catenin (B-catenin): ~3 fold
- relative mRNA expression B-catenin (2^–ΔΔCt) (B-catenin; [5]): 2.86
- upregulation of expression of SNAI1 (SNAI1): ~2 fold
- relative mRNA expression SNAI1 (2^–ΔΔCt) (SNAI1; [5]): 1.63
- effect on expression of vimentin (Vimentin): slightly upregulated also the expression of vimentin
- relative mRNA expression Vimentin (2^–ΔΔCt) (Vimentin; [5]): 1.21
- upregulation of expression of N-cadherin (N-Cadherin): ~3 fold
- relative mRNA expression N-Cadherin (2^–ΔΔCt) (N-Cadherin; [5]): 3.39
- effect on expression of E-cadherin (E-Cadherin): the expression of E-cadherin slightly decreased
- relative mRNA expression E-Cadherin (2^–ΔΔCt) (E-Cadherin; [5]): 0.73
- mean perimeter of spheroids ([1]; 72 h treatment at IC50,72h, control 2.1 mm): about 2.8 mm
- solidity ([1]; one week-old spheroids, 72 h at IC50,72h, control 3.0, Ir1 value affected by collapse of the spheroid structure): 6.3
- secondary protrusions (SP) [1, 6]: secondary protrusions were identified
- circularity ([1]; one week-old spheroids, 72 h treatment at IC50,72h, control 0.96): 0.66
- protrusion occurrence (number) ([1]; one week-old spheroids, 72 h treatment at IC50,72h, control 4): 2
- protrusion occurrence (length) [1, 6]: 73 μm
- protrusion occurrence (length) ([1]; one week-old spheroids, 72 h treatment at IC50,72h, listed as doxorubicin): up to 73 μm
- perimeter ([1]; one week-old spheroids, 72 h treatment at IC50,72h, control 2120 ± 310): 2820 ± 506 μm
- RFP fluorescence of VIM RFP reporter ([2]; 2-fold IC50,72h): somewhat suppressed the RFP fluorescence
- vimentin expression ([2]; sub-toxic concentrations): considerably increased vimentin expression
- morphology of vimentin intermediate filaments (MDA-MB-231 VIM RFP cells [3]): adopted a typical structure
- wound healing assay observation (MDA-MB-231 VIM RFP cells [4]; 24 h, IC50,72h): induced formation of the pseudopods
- wound closure capacity (MDA-MB-231 VIM RFP cells [4]; 24 h after treatment with IC50,72h, untreated control 70%): 67%
- IC50 (MCF-10A cells; Homo sapiens, MCF-10A, SRB assay, 72 h incubation, mean ± SD, non-cancerous cells): 8.6 ± 0.8 µM
- SI, average selectivity index (MCF-10A cells; IC50 (MCF-10A)/average IC50 (MDA-MB-231 and MCF-7)): ~18
- tinv, period needed to invade through the matrix membrane (MDA-MB-231 cells): approximately 35 h
